The values below come from patent publication US5004756A, “Anti-cancer activity potentiator” (priority 1988, dated 1991).

For experiment [1], the system named is V79/S. In words: Anti-cancer activity potentiating action, colony formation, V79/S parent cells (A-III). It is filed as cell-based, Chinese hamster. Particulars: for IC50: Cricetulus griseus. The method, then: (§1) The anti-cancer activity potentiating action of the malate of formula (I) was examined using Chinese hamster cells (sensitive cell line V79/S and ADM-resistant cell line V79/ADM), human hepatoma cells (sensitive cell line PLC/S and colchicin-resistant cell line PLC/Col) and mouse leukemia cells (sensitive cell line L5178Y/S) and aclarubicin-resistant cell line L5178Y/ACR).
(§2) Of these tumor cells, the sensitive cells (400 cells) and the resistant cells (600 cells) were each incubated in 10 ml of Eagle's MEM medium containing 10% bovine serum for 24 hours, and then each of the test drugs indicated in Table 6 was added. Thereafter, the incubation was carried out for 9 days. The concentration (IC50 : micrograms/ml) of the test drug required to inhibit 50% of the colony formation (proliferation) of the tumor cells was calculated.
(§3) (A) Chinese hamster V79 cells
(§4) As anti-cancer agents, there were used adriamycin (ADM), aclarubicin (ACR), actinomycin D (ACD), 5-fluorouracil (5-FU), cytarabin (Ara-C), cisplatin (CDDP), methotrexate (MTX), mitomycin C (MMC), nimustine (ACNU), mitoxantrone, etoposide ([…]), vincristine (VCR), bleomycin (BLM) and peplomycin (PEP). For the sensitive cells, the anti-cancer agents were used in combination with 10 micrograms/ml of the malate of formula (I), and for the resistant cells, the anti-cancer agents were used in combination with the malate of formula (I) 3 micrograms/ml, 5 micrograms/ml, and 10 micrograms/ ml.

For experiment [2], the system named is V79/S. In words: Colony formation (proliferation) inhibition, sensitive Chinese hamster cells (A-I Part 1). It is filed as cell-based. The protocol:
(§5) Sensitive cell line V79/S and ADM-resistant cell line V79/ADM of the Chinese hamster were used, and sensitive cell line PLC/S and cholchicin-resistant cell line PLC/Col, as human hepatoma cells.
(§6) The sensitive cell lines (400 cells) or the resistant cell lines (600 cells) were each incubated for 24 hours in 10 ml of Eagle's MEM medium containing 10% bovine serum. Each of the drugs indicated in Table 1 below was dissolved in ethanol, and 50 microliters of the resulting solution was added to the medium. The incubation was further carried out for 9 days. The concentration of the drug which inhibits 50% of the colony formation (proliferation) of the tumor cells was calculated.
(§7) V79/S and V79/ADM were tested by using all of the drugs described above, but PLC/S and PLC/Col were tested by using only the malate of formula (I), adriamycin and peplomycin.
(§8) The concentrations (micrograms/ml) required to inhibit 50% of the proliferation of the tumor cells, expressed by IC50, are shown in Table 1.

In experiment [3] the test system is V79/ADM. In words: Colony formation (proliferation) inhibition, ADM-resistant Chinese hamster cells (A-I Part 1). The experiment is classed as cell-based. The method, then: as §5, §6, §7, §8
In another experiment the test system is L5178Y/S. In words: Anti-cancer activity potentiating action, colony formation, mouse leukemia sensitive cells (table head prints PLC/S). As to conditions: head prints PLC/S (parent cells); for IC50: Mus musculus, L5178Y. It is filed as cell-based. The method, then:
as §1, §2
(§9) Adriamycin (ADM) and aclarubicin (ACR) as anti-cancer agents were used in combination with 20 micrograms/ml of the malate of formula (I).

In a further experiment the test system is L5178Y/ACR. In words: Anti-cancer activity potentiating action, colony formation, aclarubicin-resistant mouse leukemia cells (table head prints PLC/ACR). The experiment is classed as cell-based. As to conditions: for IC50: Mus musculus, L5178Y. The protocol: as §1, §2, §9
Experiment [4] concerns V79/ADM. Kind of experiment: Anti-cancer activity potentiating action, colony formation, V79/ADM resistant cells (A-III). The experiment is classed as cell-based, Chinese hamster. Particulars: for IC50: Cricetulus griseus. The protocol: as §1, §2, §3, §4
For experiment [5], the system named is clinically isolated human cancer cells (lung adenocarcinoma, lung squamous cell carcinoma, osteosarcoma, ovarian carcinoma). Kind of experiment: Anti-tumor activity on clinically isolated human cancer cells, morphological changes (A-I Part 2). It is filed as cell-based. Particulars: 0.2 μg/ml.
In a further experiment the test system is Meth-A. In words: Tumor proliferation inhibiting activity, Meth-A (A-IV). It is filed as in vivo, BALB/c rats. As to conditions: MMC 1.0 mg/kg/day, days 1-5. The protocol:
Female BALB/c rats (7 weeks old), 8 per group, were used. Tumor cells (Meth-A) induced by methyl cholanthrene were transplanted intraperitoneally to the rats, and then the malate of formula (I) was administered intraperitoneally to the rats. The proliferation inhibiting activity of the malate was examined by comparing the weight of the tumor cells with that of the tumor cells in the non-treated control group.
The dose of the malate of formula (I) was 1.25, 2.5, 5.0, and 10.0 mg/kg/day. Mitomycin C (MMC) was administered as another anti-cancer agent. The weight of the tumor cells was measured, and the proliferation inhibiting activity was determined.
The weight (g) of the tumor with respect to that of the tumor in the control group (T/C, %) after 16 days from the transplantation of the tumor cells, and the number of surviving rats after 16 days are shown in Table 8.

The test system of experiment [6] is human tumor cells (muscle fibrosarcoma HT-1080). Kind of experiment: Anti-cancer activity potentiating action in nude mice with HT-1080 (A-VI). The experiment is classed as in vivo, human tumor in ICR nude mice. As to conditions: MMC 3 mg/kg, days 5, 10, 15, 20; day 36. The method, then: ICR nude mice, 6 per group, were used, and the experiment was conducted substantially in accordance with the procedure described in A-V.
As tumor cells, human tumor cells (muscle fibrosarcoma HT-1080) were used, and 5 days after the transplantation, drug administration was started.
The administration was further performed every 5 days from the day of starting the administration, and the total number of administrations was therefore 4.
Mitomycin C (MMC) was tested by the same way as above.
Thirty-six days after the transplantation of the tumor, a tumor mass was extracted and its weight was measured. From the difference of the weight of the tumor from the non-treated control group, the tumor growth inhibition ratio (%) was calculated.

For experiment [7], the system named is PLC/Col. Kind of experiment: Anti-cancer activity potentiating action, colony formation, PLC/Col resistant cells (A-III). Particulars: PLC/Col; with compound (I) 5 μg/ml. The experiment is classed as cell-based, human. The method, then: as §1, §2
(§10) As anti-cancer agents, adriamycin (ADM) and peplomycin (PEP) were used in combination with the malate of formula (I) (5 micrograms/ml).

Experiment [8] has as its system PLC/Col. In words: Colony formation (proliferation) inhibition, colchicin-resistant human hepatoma cells (A-I Part 1). It is filed as cell-based. As to conditions: PLC/Col; 9 days; Table 1. The method, then:
as §5, §6, §7, §8

The test system of experiment [9] is PLC/S. In words: Colony formation (proliferation) inhibition, sensitive human hepatoma cells (A-I Part 1). The experiment is classed as cell-based. Particulars: PLC/S; 9 days; Table 1. The protocol: as §5, §6, §7, §8
The test system of experiment [10] is PLC/S. Kind of experiment: Anti-cancer activity potentiating action, colony formation, PLC/S parent cells (A-III). The experiment is classed as cell-based, human. As to conditions: PLC/S; with compound (I) 5 μg/ml. The protocol:
as §1, §2, §10

[11] abbreviates: read-out: IC50, anti-cancer agent alone.
[12] abbreviates: read-out: IC50 in combination with compound (I).
The mark [13] stands for this setting: V79/S, with compound (I) 10 μg/ml.
Where [14] appears, read: alone, Table 7 lower part, read-out: IC50, anti-cancer agent alone.
Where [15] appears, read: with compound (I) 20 μg/ml, read-out: IC50 in combination with compound (I).
The mark [16] stands for this setting: V79/ADM, with compound (I) 3 μg/ml.

Structures are written as SMILES. ≈ marks a conversion by molar mass, not a printed value. Where two headings read alike, the source gives them in different places.

As for `CC[C@@]1(O)C[C@H](O[C@H]2C[C@H](N(C)C)[C@H](O[C@H]3C[C@H](O)[C@H](O[C@H]4CCC(=O)[C@H](C)O4)[C@H](C)O3)[C@H](C)O2)c2c(cc3c(c2O)C(=O)c2c(O)cccc2C3=O)[C@H]1C(=O)OC` [ACR, aclarubicin], the IC50 (as a rule, the concentration at which inhibition is half-maximal) was 0.037 µg/mL in the experiment with V79/S [1] (setting [11]); 0.027 µg/mL in the experiment on V79/S [1] (setting [12]); 0.037 µg/mL (≈ 0.0456 µM) in the experiment on V79/S [2] (Cricetulus griseus, 216 h); 0.27 µg/mL (≈ 0.333 µM) in the experiment on V79/ADM [3] (Cricetulus griseus, 216 h); 0.019 µg/mL in the experiment with L5178Y/S (setting [14]); 0.017 µg/mL in the experiment with L5178Y/S (setting [15]). Also, the IC50 with L5178Y/ACR (setting [14]) stood at 0.07 µg/mL; with L5178Y/ACR (setting [15]), 0.043 µg/mL; in the experiment with V79/ADM [4] (setting [11]) it was 0.27 µg/mL; in the experiment on V79/ADM [4] (setting [12]), 0.024 µg/mL. The Potentiation activity in the experiment with V79/S [1] (setting [13]) was found to be 1.37 times; in the experiment with L5178Y/S (with compound (I) 20 μg/ml), 1.0 times; with L5178Y/ACR (with compound (I) 20 μg/ml), 1.8 times; in the experiment with V79/ADM [4] (V79/ADM, with compound (I) 10 μg/ml), 11.3 times. Also, in [5], the “Efficacy ratio (rated significant by Fisher's test)” value was 2/8.

As for `CO[C@@]12[C@H](COC(N)=O)C3=C(C(=O)C(C)=C(N)C3=O)N1C[C@@H]1N[C@@H]12` [MMC, mitomycin C], the IC50 is 0.01 µg/mL in the experiment with V79/S [1] (setting [12]); 0.02 µg/mL in the experiment on V79/S [1] (V79/S, alone, Table 6, read-out: IC50, anti-cancer agent alone); 0.057 µg/mL with V79/ADM [4] (V79/ADM, alone, Table 6, read-out: IC50, anti-cancer agent alone); 0.011 µg/mL in the experiment with V79/ADM [4] (V79/ADM, with compound (I) 5 μg/ml, read-out: IC50 in combination with compound (I)). Besides, the Potentiation activity in the experiment on V79/S [1] (setting [13]) was found to be 2.0 times; in the experiment on V79/ADM [4] (V79/ADM, with compound (I) 5 μg/ml) it was 5.20 times. Also, the “Number of surviving animals” value in the experiment with Meth-A (16 days later) was 8/8. In the experiment with Meth-A (day 16), the “T/C (tumor weight)” value worked out at 21%. Moreover, the “Tumor weight mean ± S.D.” value in the experiment with Meth-A (day 16) came out at 0.347 ± 0.185 g. Also, in experiment [6], the “Tumor growth inhibition ratio” value is recorded as 47.0%. Also, in experiment [6], the Tumor weight was found to be 1.92 ± 0.27. For the same compound, the “Efficacy ratio (rated significant by Fisher's test)” value in [5] is 0/8.

On to `Cc1c(N)nc([C@H](CC(N)=O)NC[C@H](N)C(N)=O)nc1C(=O)N[C@H](C(=O)N[C@H](C)[C@@H](O)[C@H](C)C(=O)N[C@H](C(=O)NCCc1nc(-c2nc(C(=O)NCCCN[C@@H](C)c3ccccc3)cs2)cs1)[C@@H](C)O)[C@@H](O[C@@H]1O[C@@H](CO)[C@@H](O)[C@H](O)[C@@H]1O[C@H]1O[C@H](CO)[C@@H](O)[C@H](OC(N)=O)[C@@H]1O)c1c[nH]cn1` [PEP, peplomycin], for which the Potentiation activity was determined as 6.3 times in the experiment on PLC/Col [7], 118 times in the experiment on V79/S [1] (setting [13]), 3.0 times with PLC/S [10] and 30.5 times in the experiment with V79/ADM [4] (setting [16]). For the same compound, the IC50 stood at 0.19 µg/mL (≈ 0.129 µM) in the experiment on PLC/Col [8]; 1.95 µg/mL (≈ 1.32 µM) in the experiment on V79/S [2] (V79/S, 9 days, Table 1); 0.48 µg/mL (≈ 0.326 µM) in the experiment on V79/ADM [3] (V79/ADM, 9 days, Table 1); 0.24 µg/mL (≈ 0.163 µM) in the experiment on PLC/S [9]. Also, the “IC50, anti-cancer agent alone” value with V79/S [1] (V79/S, alone, Table 6) was found to be 1.95 µg/mL; with V79/ADM [4] (V79/ADM, alone, Table 6) it was 0.48 µg/mL. Moreover, the “IC50 in combination with compound (I)” value in the experiment on V79/S [1] (setting [13]) stood at 0.0165 µg/mL; in the experiment on V79/ADM [4] (setting [16]) it was 0.0157 µg/mL.
